The values that follow come from PubChem BioAssay AID762 (NMMLSC, 2007).

In the test the target is fMet-Leu-Phe receptor (Homo sapiens) (UniProt P21462). Put plainly: FPR1 fluorescent ligand binding inhibitors, dose response, selectivity assay for FPRL1 ligand SAR project, cell-based, flow cytometry, IC50 (AID 762). The conditions noted are these: FPR-expressing cells, fluorescent ligand binding competition, IC50 of ligand binding inhibition. Background: A flow cytometer gives signals particle by particle.
fMet-Leu-Phe receptor (Homo sapiens), sequence (P21462 whole entry, looked up): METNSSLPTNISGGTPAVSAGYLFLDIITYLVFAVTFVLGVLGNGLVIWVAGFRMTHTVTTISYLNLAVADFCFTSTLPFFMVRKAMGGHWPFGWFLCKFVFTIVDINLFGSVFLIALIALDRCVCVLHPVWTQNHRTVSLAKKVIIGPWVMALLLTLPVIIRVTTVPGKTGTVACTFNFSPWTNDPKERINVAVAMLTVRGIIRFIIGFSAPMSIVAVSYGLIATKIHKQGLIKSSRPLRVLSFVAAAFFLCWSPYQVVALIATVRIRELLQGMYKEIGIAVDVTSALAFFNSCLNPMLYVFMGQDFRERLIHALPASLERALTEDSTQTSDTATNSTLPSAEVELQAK

Usually IC50 stands for the point on the concentration scale where inhibition reaches its midpoint. Read a high IC50 as weaker potency. In turn, `COc1ccc(CC(=O)Nc2cc(-c3cn4cccnc4n3)ccc2OC)cc1` returned an IC50 of over 57.2 µM.

`COc1ccc(-c2cc(C(F)(F)F)nc(N3CCN(C(c4ccccc4)c4ccccc4)CC3)n2)cc1OC` registered an IC50 of over 41.6 µM.

In turn, `COc1ccc(-c2cc(C(F)(F)F)nc(N3CCN(c4ccccc4)CC3)n2)cc1OC` returned an IC50 of over 50 µM.

As for `COc1ccc(-c2cn3cccnc3n2)cc1NC(=O)C(C)C`, the IC50 was over 71.6 µM.

Compound `COc1ccc(-c2cn3cccnc3n2)cc1NC(=O)C1CC1` gave a concentration for half-maximal inhibition (IC50) of over 72.1 µM.

As for `CCC(=O)Nc1cc(-c2cn3cccnc3n2)ccc1OC`, the IC50 was over 75 µM.

`COc1ccc(-c2cc(C(F)(F)F)nc(N3CCN(Cc4ccccc4)CC3)n2)cc1OC`: the IC50 is over 48.5 µM.

On to `O=C(N1CCN(c2nc(-c3ccccc3)c3ccccc3n2)CC1)C(F)(F)F`, for which the half-maximal inhibitory concentration (IC50) was over 57.5 µM.

`CCOC(=O)N1CCN(c2nc(-c3ccc(OC)c(OC)c3)cc(C(F)(F)F)n2)CC1` showed a half-maximal inhibitory concentration (IC50) of over 50.5 µM.

Consider `COc1ccc(-c2cn3cccnc3n2)cc1NC(=O)C1CCCC1`, for which the half-inhibitory concentration (IC50) is over 66.1 µM.
